According to patent publication US20240270751A1, “Pyrazolopyridinone Compounds” (BeiGene Ltd., priority 2021, published 2024):

Experiments:
DGKζ = DGKζ (Homo sapiens (Human), UniProt Q13574); experiment: Biochemical DGK IC50 assay, DGKζ ADP-Glo assay; settings: 0.5 nM enzyme, 140 μM ATP, 80 μM DAG; read-out: DGKζ ADP-Glo assay IC50
Procedure, shortened: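 Full-length human DGKζ, His-TEV tagged and purified from baculovirus-infected Sf9 cells, assayed by ADP-Glo with DAG/PS lipid micelle substrate prepared in 25 mM HEPES pH 7.0 with octyl glucoside. Final compound concentrations spanned 1.55–10000 nM or 23.3–150000 nM.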

DGKα = DGKα (Homo sapiens (Human), UniProt P23743); experiment: Biochemical DGK IC50 assay, DGKα ADP-Glo assay; settings: 7.5 nM enzyme, 140 μM ATP, 80 μM DAG
DGKα, sequence (P23743 whole entry): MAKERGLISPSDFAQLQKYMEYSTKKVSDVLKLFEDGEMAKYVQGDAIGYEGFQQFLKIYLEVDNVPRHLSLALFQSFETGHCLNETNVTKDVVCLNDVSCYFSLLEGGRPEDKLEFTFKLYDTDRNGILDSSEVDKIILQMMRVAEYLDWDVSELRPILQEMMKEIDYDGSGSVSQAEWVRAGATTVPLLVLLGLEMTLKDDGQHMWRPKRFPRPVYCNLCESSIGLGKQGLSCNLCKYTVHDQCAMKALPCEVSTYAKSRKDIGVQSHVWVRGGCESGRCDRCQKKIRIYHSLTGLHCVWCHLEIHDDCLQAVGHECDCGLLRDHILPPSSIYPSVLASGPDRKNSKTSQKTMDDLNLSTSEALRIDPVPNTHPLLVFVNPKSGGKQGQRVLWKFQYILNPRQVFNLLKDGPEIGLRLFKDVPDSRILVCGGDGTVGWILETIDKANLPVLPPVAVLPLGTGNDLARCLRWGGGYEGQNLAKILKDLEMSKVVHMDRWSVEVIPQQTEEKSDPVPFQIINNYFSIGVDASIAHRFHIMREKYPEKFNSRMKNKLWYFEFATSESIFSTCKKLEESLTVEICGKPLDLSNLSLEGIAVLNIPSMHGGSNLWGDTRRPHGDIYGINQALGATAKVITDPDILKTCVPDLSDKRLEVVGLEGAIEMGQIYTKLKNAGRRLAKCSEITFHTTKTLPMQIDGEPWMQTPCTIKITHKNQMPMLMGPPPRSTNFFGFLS
Procedure, shortened: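 ADP-Glo read-out with full-length DGKα on DAG/PS lipid micelle substrate in 25 mM HEPES pH 7.0, 0.5 mM EDTA, 160 mM octyl β-D-glucopyranoside. Compound final concentrations spanned 1.55˜10000 nM or 23.3˜150000 nM.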

DGKζ, sequence (Q13574 other isoform, or with tags, fused parts or gaps): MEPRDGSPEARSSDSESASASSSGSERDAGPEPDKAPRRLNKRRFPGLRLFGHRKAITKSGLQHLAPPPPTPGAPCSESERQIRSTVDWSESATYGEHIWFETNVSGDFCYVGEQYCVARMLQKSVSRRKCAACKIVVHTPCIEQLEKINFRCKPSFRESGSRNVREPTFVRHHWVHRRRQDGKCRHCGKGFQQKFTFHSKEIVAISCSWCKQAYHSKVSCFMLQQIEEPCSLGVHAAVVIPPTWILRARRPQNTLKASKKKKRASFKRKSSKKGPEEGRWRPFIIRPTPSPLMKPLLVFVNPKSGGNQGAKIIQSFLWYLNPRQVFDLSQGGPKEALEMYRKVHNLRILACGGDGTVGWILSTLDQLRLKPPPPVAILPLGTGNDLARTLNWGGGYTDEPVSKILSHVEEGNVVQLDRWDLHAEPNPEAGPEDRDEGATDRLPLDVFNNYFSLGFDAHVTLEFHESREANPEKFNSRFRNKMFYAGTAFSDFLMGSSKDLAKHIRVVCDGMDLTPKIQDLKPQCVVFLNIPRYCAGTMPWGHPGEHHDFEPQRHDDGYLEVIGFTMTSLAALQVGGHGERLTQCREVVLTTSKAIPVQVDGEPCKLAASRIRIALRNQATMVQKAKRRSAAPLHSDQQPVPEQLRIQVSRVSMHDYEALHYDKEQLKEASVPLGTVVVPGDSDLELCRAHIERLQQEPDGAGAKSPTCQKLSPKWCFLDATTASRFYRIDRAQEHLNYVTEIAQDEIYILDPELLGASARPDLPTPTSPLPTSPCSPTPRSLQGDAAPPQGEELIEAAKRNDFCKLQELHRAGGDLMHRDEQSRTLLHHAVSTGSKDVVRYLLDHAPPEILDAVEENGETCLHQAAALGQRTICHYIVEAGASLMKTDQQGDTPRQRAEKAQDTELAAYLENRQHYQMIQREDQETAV

IC50 (DGKζ) [nM] | IC50 (DGKα) [nM] | Compound
131 | > 150000 | [2H]C([2H])([2H])n1c(=O)cc(N2C[C@@H](CC)N(C(C)c3ccc(F)cc3C(F)(F)F)C[C@@H]2CC)c2nn(CC#N)cc21 (stereo partly drawn) [Compound A276, 2-(7-((2S,5R)-2,5-diethyl-4-(1-(4-fluoro-2-(trifluoromethyl)phenyl)ethyl)piperazin-1-yl)-4-(methyl-d3)-5-oxo-4,5-dihydro-2H-pyrazolo[4,3-b]pyridin-2-yl)acetonitrile]
4900 | 3000 | CC[C@H]1CN(C(C)c2ccc(C(F)(F)F)cc2F)[C@H](CC)CN1c1cc(=O)n(C)c2cn(CC#N)nc12 (single isomer, unassigned) [Compound A69b]
160 | 527 | CC[C@H]1CN(C(C)c2ccc(C(C)(C)C#N)cc2)[C@H](CC)CN1c1cc(=O)n(C)c2cn(CC#N)nc12 (stereo partly drawn) [Compound A338]
9200 | > 10000 | CC[C@H]1CN(C(C)c2ccnn2CC(F)F)[C@H](CC)CN1c1cc(=O)n(C)c2c[nH]nc12 (stereo partly drawn) [Compound A228, 7-((2S,5R)-4-(1-(1-(2,2-difluoroethyl)-1H-pyrazol-5-yl)ethyl)-2,5-diethylpiperazin-1-yl)-4-methyl-2,4-dihydro-5H-pyrazolo[4,3-b]pyridin-5-one]
305 | > 10000 | CC[C@H]1CN(C(C)c2ccc(F)cc2C2CC2)[C@H](CC)CN1c1cc(=O)n(C)c2cn(CC#N)nc12 (stereo partly drawn) [Compound A175]
533 | > 10000 | CC[C@H]1CN(C(C)c2ccncc2OC)[C@H](CC)CN1c1cc(=O)n(C)c2cn(CC#N)nc12 (stereo partly drawn) [Compound A91]
3450 | 127 | CC[C@@H]1CN(c2cc(=O)n(C)c3cn(CC#N)nc23)[C@@H](CC)CN1C(=O)c1cc2ccccc2cn1 [Compound A372]
17 | 125 | CC[C@H]1CN(C(C)c2ccc3ncccc3c2)[C@H](CC)CN1c1cc(=O)n(C)c2cn(CC#N)nc12 (stereo partly drawn) [Compound A60]
1350 | > 10000 | CC[C@H]1CN(C(C)c2cncn2CC(F)F)[C@H](CC)CN1c1cc(=O)n(C)c2cn(CC#N)nc12 (stereo partly drawn) [Compound A237]
490 | 4580 | CC#CCn1cc2c(n1)c(N1C[C@@H](C)N(C(C)c3ccc4c(c3)OC(C)(C)O4)C[C@@H]1C)cc(=O)n2C (stereo partly drawn) [Compound A390, 2-(but-2-yn-1-yl)-7-((2S,5R)-4-(1-(2,2-dimethylbenzo[d][1,3]dioxol-5-yl)ethyl)-2,5-dimethylpiperazin-1-yl)-4-methyl-2,4-dihydro-5H-pyrazolo[4,3-b]pyridin-5-one]
2930 | 176 | CC[C@H]1CN(C(C)c2ccc(C(N)=O)cc2)[C@H](CC)CN1c1cc(=O)n(C)c2cn(CC#N)nc12 (single isomer, unassigned) [Compound A120a]
1250 | 1390 | CC[C@H]1CN(C(C)c2cn3ccccc3n2)[C@H](CC)CN1c1cc(=O)n(C)c2cn(CC#N)nc12 (stereo partly drawn) [Compound A388]
89 | 103000 | CC(c1ccc2c(n1)OC(C)(C)CO2)N1C[C@H](C)N(c2cc(=O)n(C)c3cn(CC#N)nc23)C[C@H]1C (stereo partly drawn) [Compound A325, 2-(7-((2S,5R)-4-(1-(3,3-dimethyl-2,3-dihydro-[1,4]dioxino[2,3-b]pyridin-6-yl)ethyl)-2,5-dimethylpiperazin-1-yl)-4-methyl-5-oxo-4,5-dihydro-2H-pyrazolo[4,3-b]pyridin-2-yl)acetonitrile]
2200 | > 150000 | CC(c1ccc2nccnc2c1)N1C[C@H](C)N(c2cc(=O)n(C)c3cn(CC4CO4)nc23)C[C@H]1C (stereo partly drawn) [Compound A12]
> 10000 | 4160 | CC[C@H]1CN(C(C)c2cccc(CO)c2)[C@H](CC)CN1c1cc(=O)n(C)c2cn(CC#N)nc12 (stereo partly drawn) [Compound A121b]
644 | 366 | CC[C@H]1CN(C(C)c2ccc3cc(C)ncc3c2)[C@H](CC)CN1c1cc(=O)n(C)c2cn(CC#N)nc12 (stereo partly drawn) [Compound A366]
> 10000 | 4.3 | C=C(C)n1cc2c(n1)c(N1C[C@@H](CC)N(Cc3ccc(OC(F)(F)F)cc3)C[C@@H]1CC)cc(=O)n2C [Compound A27]
30000 | 27000 | CC(c1ccc2nccnc2c1)N1C[C@H](C)N(c2cc(=O)n(C)c3cn(CCO)nc23)C[C@H]1C (stereo partly drawn) [Compound A9]
57900 | 105000 | CC[C@H]1CN(C(C)c2nccn2CC)[C@H](CC)CN1c1cc(=O)n(C)c2cn(CC#N)nc12 (stereo partly drawn) [Compound A174]

IC50 (DGKζ) [nM] | IC50 (DGKα) [nM] | Compound
2840 | > 10000 | CC[C@H]1CN(C(C)c2ccccc2NC(C)=O)[C@H](CC)CN1c1cc(=O)n(C)c2cn(CC#N)nc12 (stereo partly drawn) [Compound A165]
3880 | 177 | CC[C@H]1CN(C(C)c2ccc(C(F)(F)F)cn2)[C@H](CC)CN1c1cc(=O)n(C)c2cn(CC#N)nc12 (single isomer, unassigned) [Compound A348a]
142 | 610 | CC#CCn1cc2c(n1)c(N1C[C@@H](C)N(C(C)c3ccc4ncc(C(F)F)nc4c3)C[C@@H]1C)cc(=O)n2C (stereo partly drawn) [Compound A335, 2-(but-2-yn-1-yl)-7-((2S,5R)-4-(1-(3-(difluoromethyl)quinoxalin-6-yl)ethyl)-2,5-dimethylpiperazin-1-yl)-4-methyl-2,4-dihydro-5H-pyrazolo[4,3-b]pyridin-5-one]
2.8 | 7.3 | CC[C@H]1CN(C(C)c2cc3ccccc3cn2)[C@H](CC)CN1c1cc(=O)n(C)c2cn(CC#N)nc12 (stereo partly drawn) [Compound A58]
1140 | > 10000 | CC[C@H]1CN([C@@H](C)c2nc3ncccc3n2CC)[C@H](CC)CN1c1cc(=O)n(C)c2cn(CC#N)nc12 (single isomer, unassigned) [Compound A215b]
720 | 790 | CC[C@H]1CN(C(C)c2ccc3ccccc3c2)[C@H](CC)CN1c1cc(=O)n(C)c2cn(CC#N)nc12 (stereo partly drawn) [Compound A50]
567 | > 10000 | CC(c1ccc(F)cc1CC#N)N1C[C@H](C)N(c2cc(=O)n(C)c3cn(CC#N)nc23)C[C@H]1C (single isomer, unassigned) [Compound A287b]
110 | 7740 | CC[C@@H]1CN(c2nc(=O)[nH]c3cn(CC#N)nc23)[C@@H](C)CN1C(C)c1ccc2nccnc2c1 (single isomer, unassigned) [Compound A183a]
200 | 3780 | COC[C@@H]1CN(c2cc(=O)n(C)c3cn(CC#N)nc23)[C@@H](C)CN1C(C)c1ccc2nccnc2c1 (stereo partly drawn) [Compound A100, 2-(7-((2S,5S)-5-(methoxymethyl)-2-methyl-4-(1-(quinoxalin-6-yl)ethyl)piperazin-1-yl)-4-methyl-5-oxo-4,5-dihydro-2H-pyrazolo[4,3-b]pyridin-2-yl)acetonitrile]
> 10000 | > 10000 | CC[C@H]1CN(C(C)c2cccn(C)c2=O)[C@H](CC)CN1c1cc(=O)n(C)c2cn(CC#N)nc12 (stereo partly drawn) [Compound A104]
298 | > 10000 | CC[C@H]1CN(C(C)c2nc3ccc(C(F)(F)F)cc3n2CC)[C@H](CC)CN1c1cc(=O)n(C)c2cn(CC#N)nc12 (single isomer, unassigned) [Compound A204b]
249 | 945 | CC[C@H]1CN(C(C)c2ccc(C3CC3)nc2)[C@H](CC)CN1c1cc(=O)n(C)c2cn(CC#N)nc12 (stereo partly drawn) [Compound A350, 2-(7-((2S,5R)-4-(1-(6-cyclopropylpyridin-3-yl)ethyl)-2,5-diethylpiperazin-1-yl)-4-methyl-5-oxo-4,5-dihydro-2H-pyrazolo[4,3-b]pyridin-2-yl)acetonitrile]
90 | 1020 | CC[C@H]1CN(C(C)c2ccc(F)c(OC)c2)[C@H](CC)CN1c1cc(=O)n(C)c2cn(CC#N)nc12 (stereo partly drawn) [Compound A82]
19 | 102000 | Cc1cnc2ccc([C@H](C)N3C[C@H](C)N(c4cc(=O)n(C)c5cn(CC=C(F)F)nc45)C[C@H]3C)cc2n1 [Compound A303, 2-(3,3-difluoroallyl)-7-((2S,5R)-2,5-dimethyl-4-((S)-1-(3-methylquinoxalin-6-yl)ethyl)piperazin-1-yl)-4-methyl-2,4-dihydro-5H-pyrazolo[4,3-b]pyridin-5-one]
199 | 6320 | CC[C@H]1CN(C(C)c2ncc(Cl)n2CC)[C@H](CC)CN1c1cc(=O)n(C)c2cn(CC#N)nc12 (single isomer, unassigned) [Compound A187b]
> 10000 | > 10000 | CCc1c(C(C)N2C[C@H](CC)N(c3cc(=O)n(C)c4cn(CC#N)nc34)C[C@H]2CC)cnn1C (single isomer, unassigned) [Compound A213b]
57 | 4060 | COCc1cc(F)ccc1C(C)N1C[C@H](C)N(c2cc(=O)n(C)c3cn(CC#N)nc23)C[C@H]1C (single isomer, unassigned) [Compound A29b]
> 10000 | > 10000 | CC[C@H]1CN(C(C)c2cnc(C)n2CC)[C@H](CC)CN1c1cc(=O)n(C)c2cn(CC#N)nc12 (stereo partly drawn) [Compound A219]
1760 | > 10000 | CC[C@H]1CN(C(C)c2ccc3nccnc3c2)[C@H](C)CN1c1cc(=O)n(C)c2cn(CC#N)nc12 (single isomer, unassigned) [Compound A98b]

Compound | IC50 (DGKζ) [nM] | IC50 (DGKα) [nM]
CC[C@@H]1CN(c2c(Br)c(=O)n(C)c3cn(CC#N)nc23)CCN1C(C)c1ccc2nccnc2c1 (single isomer, unassigned) [Compound A179b] | > 10000 | > 10000
